We go through 34 compounds from ChEMBL document CHEMBL6078668, “Synthesis and biological evaluation of lappaconitine analogues as potential anti-neuroinflammatory agents by side chain modification and scaffold hopping strategy” (Bioorg Med Chem, 2025).

One data set concerns BV-2. Kind of data set: Anti-neuroinflammatory activity against LPS-stimulated C57BL/6 mouse BV-2 cells assessed as inhibition of NO release at 30 uM preincubated with compound for 4 hrs followed by LPS addition and measured after 24 hrs by Griess reagent based assay relative to control. In kind it is functional. The settings on record: C57BL/6, BV-2, time 28 hrs. On the technique in general: Nitrite, measured by Griess reagent, commonly stands in for NO production.

Data set [1] in a line: Cytotoxicity against C57BL/6 mouse BV-2 cells assessed as survival rate at 30 uM incubated for 24 hrs by MTT assay relative to control. Type of data set: toxicity, cell-based. The settings on record: read-out: Survival. (In general: Formazan colour is commonly taken as a measure of viable cells.)

As usually defined, the inhibition is the percentage by which the read-out fell short of the control. Turning to `CCN1C[C@]2(OC(=O)c3ccccc3NC(=O)S(=O)(=O)c3ccc(C#N)cc3)CC[C@H](OC)[C@]34C1[C@@H](C[C@H]23)[C@@]1(O)C[C@H](OC)[C@H]2C[C@@H]4[C@]1(O)[C@H]2OC`, in the data set with BV-2, the inhibition at 30 µM came to 38.8%. In addition, the viability at 24 h, 30 µM in data set [1] came out at 103%.
In the case of `CCN1C[C@]2(OC(=O)c3ccccc3NC(=O)c3cccc(OC)c3)CC[C@H](OC)[C@]34C1[C@@H](C[C@H]23)[C@@]1(O)C[C@H](OC)[C@H]2C[C@@H]4[C@]1(O)[C@H]2OC`, the inhibition at 30 µM with BV-2 was determined as 44.9%. The viability at 24 h, 30 µM in data set [1] was 107%.
Taken in the same sequence, the figures for `CCCc1ccc(S(=O)(=O)C(=O)Nc2ccccc2C(=O)O[C@@]23CC[C@H](OC)[C@]45C([C@@H](C[C@H]24)[C@@]2(O)C[C@H](OC)[C@H]4C[C@@H]5[C@]2(O)[C@H]4OC)N(CC)C3)cc1` were 43.4% and 92.3%.
For `O=C(O)c1ccccc1NS(=O)(=O)c1cccc(F)c1`, in that order: 10.8% and 100%.
For `CCN1C[C@]2(OC(=O)c3ccccc3NC(=O)c3ccccc3I)CC[C@H](OC)[C@]34C1[C@@H](C[C@H]23)[C@@]1(O)C[C@H](OC)[C@H]2C[C@@H]4[C@]1(O)[C@H]2OC`, in that order: 13.1% and 109%.
In the case of `CCN1C[C@]2(OC(=O)c3ccccc3NC(=O)c3cccc(Br)c3)CC[C@H](OC)[C@]34C1[C@@H](C[C@H]23)[C@@]1(O)C[C@H](OC)[C@H]2C[C@@H]4[C@]1(O)[C@H]2OC`, the inhibition at 30 µM with BV-2 was 44.1%. The viability at 24 h, 30 µM in data set [1] stood at 100%.
For `CCOc1ccc(C(=O)Nc2ccccc2C(=O)O[C@@]23CC[C@H](OC)[C@]45C([C@@H](C[C@H]24)[C@@]2(O)C[C@H](OC)[C@H]4C[C@@H]5[C@]2(O)[C@H]4OC)N(CC)C3)cc1`, in that order: 53.6% and 101%.
Taken in the same sequence, the figures for `CCN1C[C@]2(OC(=O)c3ccccc3NC(=O)C3CCCO3)CC[C@H](OC)[C@]34C1[C@@H](C[C@H]23)[C@@]1(O)C[C@H](OC)[C@H]2C[C@@H]4[C@]1(O)[C@H]2OC` (stereo partly drawn) were 14.5% and 108%.
For the compound `O=C(Nc1ccccc1C(=O)O)c1ccc(Cl)s1`, in the data set with BV-2, the inhibition at 30 µM was 32.4%. The viability at 24 h, 30 µM in data set [1] was determined as 98.7%.
Turning to `CCN1C[C@]2(OC(=O)c3ccccc3NC(=O)CN(C)C)CC[C@H](OC)[C@]34C1[C@@H](C[C@H]23)[C@@]1(O)C[C@H](OC)[C@H]2C[C@@H]4[C@]1(O)[C@H]2OC`, the inhibition at 30 µM in the data set on BV-2 came to 20.2%. Moreover, the viability at 24 h, 30 µM in data set [1] was 94.5%.
For `CCN1C[C@]2(OC(=O)c3ccccc3NC(=O)S(=O)(=O)c3cccnc3Cl)CC[C@H](OC)[C@]34C1[C@@H](C[C@H]23)[C@@]1(O)C[C@H](OC)[C@H]2C[C@@H]4[C@]1(O)[C@H]2OC`, in that order: 56.5% and 106%.
On to `CCN1C[C@]2(OC(=O)c3ccccc3NC(C)=O)CC[C@H](OC)[C@]34C1[C@@H](C[C@H]23)[C@@]1(O)C[C@H](OC)[C@H]2C[C@@H]4[C@]1(O)[C@H]2OC`, for which the inhibition at 30 µM in the data set on BV-2 was found to be 25.1%. For the same compound, the viability at 24 h, 30 µM in data set [1] came out at 98.2%.
Regarding `CCN1C[C@]2(OC(=O)c3ccccc3NC(=O)S(C)(=O)=O)CC[C@H](OC)[C@]34C1[C@@H](C[C@H]23)[C@@]1(O)C[C@H](OC)[C@H]2C[C@@H]4[C@]1(O)[C@H]2OC`, the inhibition at 30 µM in the data set with BV-2 was 5.1%. Moreover, the viability at 24 h, 30 µM in data set [1] stood at 102%.
As for `CCN1C[C@]2(COC(=O)c3ccccc3N)CC[C@H](OC)[C@]34C1[C@@H](C[C@H]23)[C@@]1(O)C[C@H](OC)[C@H]2C[C@@H]4[C@]1(O)[C@H]2OC`, the inhibition at 30 µM in the data set on BV-2 amounted to 22%. Moreover, the viability at 24 h, 30 µM in data set [1] turned out to be 91.9%.
As to `CCN1C[C@]2(OC(=O)c3ccccc3NC(=O)S(=O)(=O)c3ccccc3)CC[C@H](OC)[C@]34C1[C@@H](C[C@H]23)[C@@]1(O)C[C@H](OC)[C@H]2C[C@@H]4[C@]1(O)[C@H]2OC`, the inhibition at 30 µM in the data set on BV-2 is 31.8%. The viability at 24 h, 30 µM in data set [1] stood at 97.2%.
For `CCN1C[C@]2(OC(=O)c3ccccc3NC(=O)S(=O)(=O)c3ccc(C#N)cc3Cl)CC[C@H](OC)[C@]34C1[C@@H](C[C@H]23)[C@@]1(O)C[C@H](OC)[C@H]2C[C@@H]4[C@]1(O)[C@H]2OC`, the inhibition at 30 µM in the data set on BV-2 came to 12.5%. In data set [1], the viability at 24 h, 30 µM turned out to be 99.4%.
For `CCN1C[C@]2(OC(=O)c3ccccc3NC(=O)C3CCCC3)CC[C@H](OC)[C@]34C1[C@@H](C[C@H]23)[C@@]1(O)C[C@H](OC)[C@H]2C[C@@H]4[C@]1(O)[C@H]2OC`, in that order: 37.9% and 107%.
For the compound `CCN1C[C@]2(OC(=O)c3ccccc3NC(=O)S(=O)(=O)c3ccc(OC)c(OC)c3)CC[C@H](OC)[C@]34C1[C@@H](C[C@H]23)[C@@]1(O)C[C@H](OC)[C@H]2C[C@@H]4[C@]1(O)[C@H]2OC`, in the data set with BV-2, the inhibition at 30 µM amounted to 19.4%. The viability at 24 h, 30 µM in data set [1] was 105%.
With `CCN1C[C@]2(OC(=O)c3ccccc3NC(=O)S(=O)(=O)c3ccc(Cl)cc3F)CC[C@H](OC)[C@]34C1[C@@H](C[C@H]23)[C@@]1(O)C[C@H](OC)[C@H]2C[C@@H]4[C@]1(O)[C@H]2OC`, the inhibition at 30 µM with BV-2 came out at 14.9%. Moreover, the viability at 24 h, 30 µM in data set [1] worked out at 99.8%.
Consider `CCN1C[C@]2(OC(=O)c3ccccc3NC(=O)C3CC3)CC[C@H](OC)[C@]34C1[C@@H](C[C@H]23)[C@@]1(O)C[C@H](OC)[C@H]2C[C@@H]4[C@]1(O)[C@H]2OC`, for which the inhibition at 30 µM in the data set with BV-2 worked out at 27.7%. In data set [1], the viability at 24 h, 30 µM is 104%.
On to `CCN1C[C@]2(OC(=O)c3ccccc3NC(=O)S(=O)(=O)Cc3ccc([N+](=O)[O-])cc3)CC[C@H](OC)[C@]34C1[C@@H](C[C@H]23)[C@@]1(O)C[C@H](OC)[C@H]2C[C@@H]4[C@]1(O)[C@H]2OC`, for which, in the data set on BV-2, the inhibition at 30 µM was 22.7%. The viability at 24 h, 30 µM in data set [1] was 98.9%.
On to `CCN1C[C@]2(OC(=O)c3ccccc3NC(=O)S(=O)(=O)c3cc(Br)c(Cl)s3)CC[C@H](OC)[C@]34C1[C@@H](C[C@H]23)[C@@]1(O)C[C@H](OC)[C@H]2C[C@@H]4[C@]1(O)[C@H]2OC`, for which the inhibition at 30 µM with BV-2 came to 29.4%. Besides, in data set [1], the viability at 24 h, 30 µM amounted to 94.3%.
For `CCCCOC(=O)c1ccccc1NC(=O)c1ccc(Cl)s1`, in that order: 42.8% and 110%.
For the compound `CCN1C[C@]2(OC(=O)c3ccccc3NC(=O)S(=O)(=O)c3cccc(Br)c3)CC[C@H](OC)[C@]34C1[C@@H](C[C@H]23)[C@@]1(O)C[C@H](OC)[C@H]2C[C@@H]4[C@]1(O)[C@H]2OC`, the inhibition at 30 µM with BV-2 was 10%. Besides, the viability at 24 h, 30 µM in data set [1] was 102%.
`CCN1C[C@]2(OC(=O)c3ccccc3NC(=O)S(=O)(=O)c3ccc(F)c(Cl)c3)CC[C@H](OC)[C@]34C1[C@@H](C[C@H]23)[C@@]1(O)C[C@H](OC)[C@H]2C[C@@H]4[C@]1(O)[C@H]2OC`: the inhibition at 30 µM in the data set with BV-2 was 26.2%. In addition, the viability at 24 h, 30 µM in data set [1] worked out at 93.6%.
For `CCCCOC(=O)c1ccccc1NS(=O)(=O)c1cccc(F)c1`, in that order: 50.9% and 106%.
For `CCCCCCC(=O)Nc1ccccc1C(=O)O[C@@]12CC[C@H](OC)[C@]34C([C@@H](C[C@H]13)[C@@]1(O)C[C@H](OC)[C@H]3C[C@@H]4[C@]1(O)[C@H]3OC)N(CC)C2`, the inhibition at 30 µM in the data set with BV-2 was 30%. Moreover, the viability at 24 h, 30 µM in data set [1] was found to be 100%.
On to `CCN1C[C@]2(OC(=O)c3ccccc3NC(=O)c3cccc(Cl)c3)CC[C@H](OC)[C@]34C1[C@@H](C[C@H]23)[C@@]1(O)C[C@H](OC)[C@H]2C[C@@H]4[C@]1(O)[C@H]2OC`, for which, in the data set on BV-2, the inhibition at 30 µM worked out at 12.9%. In addition, the viability at 24 h, 30 µM in data set [1] is 104%.
Consider `CCN1C[C@]2(OC(=O)c3ccccc3NC(=O)S(=O)(=O)c3ccccc3[N+](=O)[O-])CC[C@H](OC)[C@]34C1[C@@H](C[C@H]23)[C@@]1(O)C[C@H](OC)[C@H]2C[C@@H]4[C@]1(O)[C@H]2OC`, for which, in the data set on BV-2, the inhibition at 30 µM was 20.5%. Also, the viability at 24 h, 30 µM in data set [1] was 104%.
Regarding `CCN1C[C@]2(OC(=O)c3ccccc3NC(=O)S(=O)(=O)c3ccc(C)cc3)CC[C@H](OC)[C@]34C1[C@@H](C[C@H]23)[C@@]1(O)C[C@H](OC)[C@H]2C[C@@H]4[C@]1(O)[C@H]2OC`, the inhibition at 30 µM in the data set on BV-2 came to 31.7%. In data set [1], the viability at 24 h, 30 µM was determined as 102%.
For `CCN1C[C@]2(OC(=O)c3ccccc3NC(=O)c3ccc(Cl)cc3)CC[C@H](OC)[C@]34C1[C@@H](C[C@H]23)[C@@]1(O)C[C@H](OC)[C@H]2C[C@@H]4[C@]1(O)[C@H]2OC`, in that order: 32.3% and 105%.
`CCN1C[C@]2(OC(=O)c3ccccc3NC(=O)C3CCCCC3)CC[C@H](OC)[C@]34C1[C@@H](C[C@H]23)[C@@]1(O)C[C@H](OC)[C@H]2C[C@@H]4[C@]1(O)[C@H]2OC`: in the data set on BV-2, the inhibition at 30 µM was determined as 44.5%. For the same compound, the viability at 24 h, 30 µM in data set [1] worked out at 105%.
For `CCN1C[C@]2(OC(=O)c3ccccc3NC(=O)C3CCOCC3)CC[C@H](OC)[C@]34C1[C@@H](C[C@H]23)[C@@]1(O)C[C@H](OC)[C@H]2C[C@@H]4[C@]1(O)[C@H]2OC`, in that order: 36.3% and 103%.
Taken in the same sequence, the figures for `CCN1C[C@]2(OC(=O)c3ccccc3NC(=O)S(=O)(=O)c3ccc4c(c3)CCC4)CC[C@H](OC)[C@]34C1[C@@H](C[C@H]23)[C@@]1(O)C[C@H](OC)[C@H]2C[C@@H]4[C@]1(O)[C@H]2OC` were 18.1% and 94.4%.
